# Laboratory results from article PMC11546719, “Immune Modulatory Profile of the Pateamines PatA and Des-Methyl Des-Amino PatA” (International Journal of Molecular Sciences, 2024).
# Where two headings read alike, the source gives them in different places.
# Key:
# M2 MdMs = system: M2 MdMs; parameters: method as in PMID 36982945; details: summary table ref 11; cited from earlier work
# M1 MdMs [1] = system: M1 MdMs; parameters: method as in PMID 36982945; details: summary table ref 11; cited from earlier work
# Human primary B cells [2] = system: Human primary B cells; parameters: method as in PMID 36982945; details: summary table ref 11; cited from earlier work
# Human primary T cells = system: Human primary T cells; parameters: method as in PMID 36982945; details: summary table ref 11; cited from earlier work
# B cells = assay: Energy metabolism (Seahorse OCR/ECAR) in B cells; format: cell-based, human; details: 5 days, PatA, DMDA 0.25-0.5 nM, silvestrol 5 nM, rapamycin 10 ng/mL
# Method: (§1) The determination of the energy metabolism was performed as described previously. Briefly, for the analysis of the extracellular acidification rate (ECAR) and the oxygen consumption rate (OCR) for human B cells, Tcells, M1 MdMs and M2 MdMs, the Seahorse XFe96 FluxPak (Agilent, Waldbronn, Germany) was used as recommended by the manufacturer. MdMs were polarized to M1 or M2 MdMs in the presence of PatA (0.5, 2.5, 5 nM), DMDA (0.5, 2.5, 5 nM) or vehicle (DMSO) for 48 h or 24 h, respectively. T cells were activated in the presence of PatA (0.25, 0.5 nM), DMDA (0.25, 0.5 nM), silvestrol or DMSO. B cells were activated in the presence of PatA (0.25, 0.5 nM), DMDA (0.25, 0.5 nM), silvestrol (5 nM) or rapamycin (10 ng/mL positive control). Cells were washed with Seahorse XF RPMI medium pH 7.4 (Agilent, Waldbronn, Germany) and OCR and ECAR were measured as octuplicates for a period of 160 min using the Seahorse XFe96 Analyzer (Agilent, Waldbronn, Germany) and analyzed by Wave Software 2.6.3.8 (Agilent, Waldbronn, Germany). The relative values were calculated by relating the OCR or ECAR values obtained after 50 min to the values of the vehicle control (not stimulated).
# M1 MdMs [3] = system: M1 MdMs; parameters: method as in PMID 36982945; details: M1 MdMs ref 11; cited from earlier work
# T cells = assay: Energy metabolism (Seahorse OCR/ECAR) in T cells; format: cell-based, human; details: 5 days, PatA, DMDA 0.25-0.5 nM, silvestrol 5 nM
# Method: as §1
# TK6 cells = assay: Micronuclei assay; format: cell-based, human; details: 4 h incubation then 44 h
# Method: The In-Vitro Micronuclei Plus assay (Becton Dickinson, Heidelberg, Germany) was performed as described by the supplier. Briefly, 2 × 10^4 TK6 cells were incubated with increasing concentrations of PatA, DMDA and silvestrol for 4 h. The cells were washed with PBS and incubated in fresh medium (without test substance) for 44 h. The cells were centrifuged (300× g) for 5 min, the […] and placed on ice for 20 min. Then, 50 µL of Complete Nucleic Acid Dye A Solution was added. The plate was placed on ice and exposed to visible light for 30 min. The Nucleic Acid Dye A solution was removed and the cells were washed with 0.15 mL of cold 1x Buffer Solution. An amount of 100 µL Complete Lysis Solution 1 was added, followed by gently mixing of the plate for 5 s and incubation of 1 h in the dark at 37 °C. Then, 100 µL Complete Lysis Solution 2 was added and incubated for 30 min in the dark at room temperature. The cells were analyzed via flow cytometry with the MACSQuant 10 (Miltenyi GmbH, Bergisch Gladbach, Germany).
# Human primary B cells [4] = assay: B cell activation with IL-21, sCD40L, CpG and anti-IgM; format: cell-based; details: activated B cells, 5 days
# Method: B cells were activated as described by Khoenkhoen et al.. […].
# Surface marker analysis was performed as described previously. Briefly, 1.5–2 × 10^5 cells of each sample were blocked with human FcR Blocking Reagent (15 min, 4 °C). […]. Afterwards, samples were stained with a mixture of different surface marker antibodies (15 min, 4 °C) and measured with MACSQuant® Analyzer 10 flow cytometer. For M1-/M2-MdMs anti-CD86, anti-CD14, anti-HLA-DR, anti-CD206, anti-CD80, anti-TREM2 and anti-CD163 were used. For T cells, anti-CD69, anti-CD54, anti-CD49a, anti-CD18, anti-CD134, anti-CD154, anti-CD3 and anti-CD25 were analyzed. For B cells, anti-CD27, anti-CD19 and anti-CD38 were applied. For T cell and B cell proliferation assay, freshly isolated T and B cells were stained with CTV and detected using flow cytometry. Naïve B cells were characterized as CD19^+CD27^lowCD38^med, memory B cells as CD19^+CD27^med CD38^low and plasma cells as CD27^+CD38^+ cells. M1 MdMs and M2 MdMs cell population was gated using FSC/SSC channel. T cells were gated as CD3^+CD25^+ positive cells. The geometric mean of the fluorescent intensity was calculated using FlowJo software v10 (Treestar, Ashland, […], USA). Fold induction of surface marker expression was calculated using the DMSO-treated cells as the control.
# For determination of cytokine concentrations in the supernatant of humane immune cells, cytometric bead array (BD Biosciences, Heidelberg, Germany) for IL-10, IL-17, IL-8, IL-6, IFN-γ and CCL2 was used. For the detection of CCL18, CCL17, IgG, IgA and PGE2, an ELISA was performed. The cytometric bead arrays and the ELISAs were performed according to the protocol of the supplier.
# Calu-3 cell barrier = assay: Transport assay, Calu-3 cell barrier; format: in vitro ADME
# Method: (§2) The transport assay was achieved as described previously. Briefly, 1 × 10^5 CaCo-2 or 5 × 10^4 Calu-3 cells in 300 µL medium were seeded on 24-well ThinCerts (pre-coated with FCS for 60 min) and in the lower compartment, 1 mL culture medium per well was added. The Caco-2 cell barrier was generated over 20 days and the Calu-3 barrier was generated over 14 days. DMDA (0 nM, 5 nM, 50 nM, 100 nM), PatA (0 nM, 5 nM, 50 nM, 100 nM), 200 µM famotidine, 200 µM lucifer yellow or 200 µM carbamazepine diluted in medium was added to the apical compartment and incubated for 4 h or 24 h. The medium from the basolateral and apical compartment was collected and stored at −20 °C and analyzed using LC-MS/MS. To obtain the transport rate, the drug amount in the basolateral compartment at 4 h or 24 h was related to the drug amount in the apical compartment (0 h).
# (§3) The detailed method for the analysis of DMDA, PatA, carbamazepine and famotidine using LC-MS/MS is described in the Supplementary Materials.
# Caco-2 cell barrier = assay: Transport assay, Caco-2 cell barrier; format: in vitro ADME
# Method: as §2, §3
# [5] = 4 and 24 h, PatA, DMDA 5, 50, 100 nM, controls 200 µM
molecule,measurement,setting,value
CONC(=O)[C@H]1[C@@H](O)[C@@]2(O)c3c(OC)cc(OC)cc3O[C@@]2(c2ccc(OC)cc2)[C@@H]1c1ccccc1 [CR31-B (-)],"Effect on the release of inflammatory markers, M2 MdM",M2 MdMs,"TNF-α↑, CCL2↓, CCL17↓, CCL18↓,"
same,"Effect on the release of inflammatory markers, M1 MdM",M1 MdMs [1],"IL-6↓, IL-8↓, CCL2↓, CCL18↓"
same,"Effect on the release of inflammatory markers, B Cells",Human primary B cells [2],"IgA↓, IgG↓"
same,"Effect on the release of inflammatory markers, T Cells",Human primary T cells,"IL-10↓, IL-17↓, IFN-γ↓"
"COC(=O)[C@H]1[C@@H](O)[C@@]2(O)c3c(OC)cc(O[C@@H]4O[C@@H]([C@H](O)CO)CO[C@H]4OC)cc3O[C@@]2(c2ccc(OC)cc2)[C@@H]1c1ccccc1 [Silvestrol, silvestrol]",Energy metabolism: glycolysis (ECAR) and oxidative phosphorylation (OCR),B cells,increased glycolysis and oxidative phosphorylation
same,Energy metabolism: glycolysis and oxidative phosphorylation,M1 MdMs [3],reduced glycolysis and oxidative phosphorylation
same,"Effect on the release of inflammatory markers, M2 MdM",M2 MdMs,"IL-8↓, CCL2↓,"
same,"Effect on the release of inflammatory markers, M1 MdM",M1 MdMs [1],"IL-6↓, IL-8↓, CCL2↓, TNF-α↑"
same,"Effect on the release of inflammatory markers, B Cells",Human primary B cells [2],"IgA↓, IgG↓"
same,Energy metabolism: glycolysis (ECAR) and oxidative phosphorylation (OCR),T cells,did not alter the energy metabolism
same,"Effect on the release of inflammatory markers, T Cells",Human primary T cells,"IL-10↑, IFN-γ↑"
same,Genotoxic potential: micronuclei (clastogenic) and hypodiploid cells (aneugenic),TK6 cells,showed no genotoxic effects
"CO[C@H]1C[C@@H]2CC[C@@H](C)[C@@](O)(O2)C(=O)C(=O)N2CCCC[C@H]2C(=O)O[C@H]([C@H](C)C[C@@H]2CC[C@@H](O)[C@H](OC)C2)CC(=O)[C@H](C)/C=C(\C)[C@@H](O)[C@@H](OC)C(=O)[C@H](C)C[C@H](C)/C=C/C=C/C=C/1C [rapamycin, reference compound]","B cell activation (formation of plasma cells, proliferation, release of IgGs)",Human primary B cells [4],prevented B cell activation
same,Cell viability (zombie staining),Human primary B cells [4],did not reduce cell viability
"NC(N)=Nc1nc(CSCCC(N)=NS(N)(=O)=O)cs1 [famotidine, reference compound]",Permeability / transport rate across Calu-3 cell barrier (in words),Calu-3 cell barrier; [5],low permeability
same,Permeability / transport rate across Caco-2 cell barrier (in words),Caco-2 cell barrier; [5],low permeability
"NC(=O)N1c2ccccc2C=Cc2ccccc21 [carbamazepine, reference compound]",Permeability / transport rate across Calu-3 cell barrier (in words),Calu-3 cell barrier; [5],high
same,Permeability / transport rate across Caco-2 cell barrier (in words),Caco-2 cell barrier; [5],high
lucifer yellow [reference compound],Permeability / transport rate across Calu-3 cell barrier (in words),Calu-3 cell barrier,low permeability
same,Permeability / transport rate across Caco-2 cell barrier (in words),Caco-2 cell barrier; Caco-2,low permeability
"COS(C)(=O)=O [methylmethansulfonat (MMS), methylmethansulfonat, reference compound]",Genotoxic potential: micronuclei (clastogenic) and hypodiploid cells (aneugenic),TK6 cells,significant increase in micronuclei and hypodiploid cells
"COc1cc2c(c(OC)n1)[C@]1(O)[C@H](O)[C@H](CN(C)C)[C@@H](c3ccccc3)[C@]1(c1ccc(C#N)cc1)O2 [Zotatifin, zotatifin]","Effect on the release of inflammatory markers, M2 MdM",M2 MdMs,"IL-10↓, CCL18↓"
same,"Effect on the release of inflammatory markers, M1 MdM",M1 MdMs [1],No effect
same,"Effect on the release of inflammatory markers, B Cells",Human primary B cells [2],"IgA↓, IgG↓"
same,"Effect on the release of inflammatory markers, T Cells",Human primary T cells,"IL-10↓, IL-17↓, IFN-γ↓"
